Literature values, collected in US20200246376A1, “HYDROGEN BASED COMPOSITIONS” (HYDROGEN4HEALTH PTY LTD, priority 2019, published 2020).

[HH] [molecular hydrogen, hydrogen]
saturation of molecular hydrogen in water (hydrogen water prepared by electrolysis): around 1.6 ppm
typical saturation of hydrogen gas in water (standard temperature and pressure (STP)): 1.6 mg/L
